Data published in the Biogen ADME set (Fang et al. 2023).
In brackets after ≈: the same amount, converted by molar mass.

Details: for aqueous solubility: pH 6.8

Row | SMILES | MDR1-MDCK efflux ratio | intrinsic clearance, human liver microsomes [mL/min/kg] | intrinsic clearance, rat liver microsomes [mL/min/kg] | aqueous solubility [µg/mL] | fraction unbound, human plasma | fraction unbound, rat plasma
1 | Cc1oc(C)c(C(=O)Nc2ccn(C)n2)c1C | 0.597 | 75.4 | 93.7 | 36.7 (≈ 157 µM) | – | –
2 | Cc1cc(Nc2nnc(C)s2)cc(C2CN(C(=O)c3c(C(C)C)noc3C)CCO2)n1 (configuration not stated) | 54.3 | 22.5 | 151 | – | – | –
3 | CC(C)c1c(-c2ccccc2)[n+]([O-])c2c([n+]1[O-])CCC2 | – | ≤ 4.74 | 14.3 | – | – | –
4 | Cc1cc(N(C)C)nc(N(C)Cc2csc(C)n2)n1 | 0.632 | 30.6 | 681 | 47.4 (≈ 171 µM) | – | –
5 | O=C(NCCN1CCC(n2c(=O)[nH]c3cc(Cl)ccc32)CC1)c1ccc(F)cc1 | – | 60.9 | 373 | – | – | –
6 | Cc1cc(CNc2cc(C(=O)N(C)C)ccn2)sc1Br | 0.744 | 36.2 | 799 | 47.3 (≈ 134 µM) | – | –
7 | CN(C)C1(CNC(=O)N2CCCC(C)(C)CC2)CCOCC1 | 16.5 | 8.43 | 120 | 56.9 (≈ 183 µM) | – | –
8 | O=C(Nc1ccc2c(c1)OCCCO2)c1cnn(Cc2ccccc2)c1 | 0.64 | 6.05 | 492 | 16.5 (≈ 47.2 µM) | – | –
9 | O=C(c1cc2ccccc2[nH]1)N1C[C@@H](O)[C@H](N2CCOCC2)C1 | 0.428 | ≤ 4.74 | 17.6 | 45.6 (≈ 145 µM) | – | –
10 | Cc1cc(C(F)(F)F)nc(N(C)Cc2c(C)noc2C)n1 | – | 91.7 | 589 | – | – | –
11 | COCC(C)(C)C(=O)N1CCCC2(CCNCC2)CC1 | 4.31 | ≤ 4.74 | ≤ 10.7 | – | – | –
12 | O=C1Oc2nc3cc4c(cc3cc2CN1CCN1CCOCC1)OCCO4 | 3.87 | ≤ 4.74 | ≤ 10.7 | 80.5 (≈ 217 µM) | – | –
13 | Cc1nc2cc(NC(=O)CCc3c(C)noc3C)ccc2o1 | 4.62 | ≤ 4.74 | 78.5 | 39.1 (≈ 131 µM) | – | –
14 | NC(=O)c1sc2cc(F)ccc2c1Cl | – | – | – | 0.5 (≈ 2.18 µM) | – | –
15 | COc1ccc(CN[C@@H]2CCC[C@H]2Cc2cc(C)no2)cc1OC | 3.3 | 36.9 | 1120 | – | – | –
16 | Cc1cccc(NC(=O)N2CCC(N3CC=CC3)CC2)c1Cl | 0.517 | 9.11 | 1040 | – | – | –
17 | CC(=O)NC1CCC(NCCc2c(C)cccc2C)CC1 (configuration not stated) | 19.8 | ≤ 4.74 | 1140 | – | – | –
18 | Cc1cc(CN2CCN(c3ncccn3)CC2)on1 | 0.608 | ≤ 4.74 | 91.5 | 36.7 (≈ 141 µM) | – | –
19 | CC1(C)[C@@H]2C[C@H]1[C@@]1(O)[C@@H](C2)Oc2c(ccc(O)c2C(=O)NCCc2ccccn2)[C@@H]1O | – | 555 | 910 | – | – | –
20 | Cc1cnn(Cc2cc(F)ccc2F)c1N | – | 6.7 | ≤ 10.7 | 41.2 (≈ 185 µM) | – | –
21 | CCN(C/C=C/c1ccc(F)cc1)Cc1nc(COC)no1 | 0.527 | 25.9 | 862 | 32 (≈ 105 µM) | – | –
22 | CC(C)n1cc(CN2CCC(c3nc(N(C)C)no3)CC2)cn1 | 1.79 | ≤ 4.74 | 179 | – | – | –
23 | Cc1cccc(N(C)Cc2cnc(N(C)C)nc2)n1 | 0.769 | 57.7 | 1770 | – | – | –
24 | Oc1cccc(CN2CCN(c3ncc(Br)cn3)CC2)c1 | – | 29.3 | 303 | 4.95 (≈ 14.2 µM) | – | –

The next lines start with the values.

Row | MDR1-MDCK efflux ratio | intrinsic clearance, human liver microsomes [mL/min/kg] | intrinsic clearance, rat liver microsomes [mL/min/kg] | aqueous solubility [µg/mL] | fraction unbound, human plasma | fraction unbound, rat plasma | SMILES
25 | 3.88 | – | – | 0.3 (≈ 0.719 µM) | – | – | COc1ccc(-c2[nH]c3ncccc3c2CN(C)CCOc2ccccc2OC)cc1
26 | 29 | 61.3 | 1030 | 54.8 (≈ 140 µM) | – | – | CC1Cc2ccccc2N1C(=O)CN1CCC(n2c(=O)[nH]c3ccccc32)CC1 (configuration not stated)
27 | 0.932 | 184 | 1870 | 49.2 (≈ 155 µM) | – | – | Cn1cc(C#N)cc1-c1nc(C2CC2)nn1CCc1ccccc1
28 | 1.13 | ≤ 4.74 | ≤ 10.7 | 1.15 (≈ 3.22 µM) | – | – | FC(F)(F)c1nc(Nc2ccc(-n3cnnn3)cc2)c2ccccc2n1
29 | 0.659 | 35.1 | 456 | 43.6 (≈ 135 µM) | – | – | O=C(c1ccccc1-c1ncc(-c2ccccc2F)o1)N1CCC1
30 | 5.94 | 16.3 | 867 | 83.4 (≈ 210 µM) | – | – | COc1ccc(CCC(=O)N2CCN(C(=O)c3cc4n(n3)CCCC4)CC2)cc1
31 | – | 60.3 | 167 | 46.4 (≈ 145 µM) | – | – | COc1ccccc1C(=O)Nc1cccc(-c2ccnc(C)n2)c1
32 | 15.2 | – | – | 0.3 (≈ 0.844 µM) | – | – | Cc1ccc2[nH]c(C3CN(C(=O)Cc4cccc5ccccc45)C3)nc2c1
33 | 0.522 | 87.4 | 1750 | – | – | – | COc1ccc(C(=O)c2ccc(Cl)cc2)c(OC)c1
34 | 13.6 | 4.86 | 34.6 | 1.15 (≈ 3.28 µM) | – | – | CCc1ccc(NC(=O)C2CCN(c3ccc4nncn4n3)CC2)cc1
35 | 0.531 | 15.1 | 288 | – | – | – | Cc1csc(Cc2nc(-c3ccc(O)cc3)no2)n1
36 | – | 346 | 2820 | – | – | – | O=C(Cc1csc(-c2ccc(F)cc2)n1)N1CCC(n2c(=O)[nH]c3ccccc32)CC1
37 | – | – | – | 1.65 (≈ 6.95 µM) | – | – | O=C(Nc1nc2ccccc2[nH]1)c1ccccc1
38 | 20.3 | 5.11 | 63.6 | 43.4 (≈ 128 µM) | – | – | CN1CCc2nc(NC(=O)c3cncn3-c3ccccc3)sc2C1
39 | 0.526 | – | – | 0.18 (≈ 0.526 µM) | – | – | COc1ccc(-c2nn3c(-c4ccco4)nnc3c3ccccc23)cc1
40 | 0.593 | 303 | 3450 | 22.4 (≈ 62.9 µM) | – | – | Cc1cccc(-c2ncc(CNCc3ccccc3-n3cccn3)cn2)c1
41 | – | 34.7 | 485 | – | – | – | COc1cc(-c2cnc(NC3CC3)nc2-c2cccs2)nc(OC)n1
42 | 0.486 | 13.5 | 2330 | – | – | – | Nc1ccnc2ccc(Oc3ccccc3)cc12

Row | MDR1-MDCK efflux ratio | intrinsic clearance, human liver microsomes [mL/min/kg] | intrinsic clearance, rat liver microsomes [mL/min/kg] | aqueous solubility [µg/mL] | fraction unbound, human plasma | fraction unbound, rat plasma | SMILES
43 | 5.52 | – | – | 0.35 (≈ 0.714 µM) | 0.00025 | – | CCCS(=O)(=O)Nc1ccc(F)c(C(=O)c2c[nH]c3ncc(-c4ccc(Cl)cc4)cc23)c1F
44 | – | 21.4 | 65.7 | 31.5 (≈ 95.6 µM) | – | – | Cn1ccc(NC(=O)c2cc(-c3ccncc3)nc3ccccc23)n1
45 | 51.7 | 269 | 981 | – | – | – | CC(C)NC(=O)C1(Cc2ccccc2-c2ccncc2)CCOCC1
46 | – | – | – | 0.66 (≈ 2.13 µM) | – | – | CCOc1ccccc1N/C=C1\C(=O)Oc2ccccc2C1=O
47 | 0.843 | 73.8 | 1080 | – | 0.0168 | 0.0229 | C[C@@H]1Cc2ccccc2N1C(=O)Cn1nc(-c2cccc3ncccc23)oc1=O
48 | 1.27 | ≤ 4.74 | 28.8 | 36.3 (≈ 153 µM) | – | – | Nc1ccc2[nH]c(CCc3ccccc3)nc2c1
49 | 1.43 | ≤ 4.74 | 103 | 54 (≈ 179 µM) | – | – | Cc1ccc(NC(=O)CN(C)C(=O)c2ccccc2F)nc1
50 | 0.578 | 6.67 | 127 | – | – | – | O=C(Nc1cnc2ccccc2n1)c1ccncc1
51 | 0.562 | 21.5 | 959 | 38.9 (≈ 123 µM) | – | – | CN(C)S(=O)(=O)Nc1ccc(-n2ncc3ccccc32)cc1
52 | 2.37 | 65.8 | 257 | 42.3 (≈ 115 µM) | – | – | O=C(Nc1cccc(-c2cnco2)c1)C1(c2cccc(F)c2)CCOCC1
53 | 0.658 | 15.1 | 2320 | – | – | – | CCN(C)S(=O)(=O)N(C)Cc1cnc2ccccc2c1
54 | – | ≤ 4.74 | 170 | – | – | – | CNc1ncc2cc(-c3ccc(-c4cccc(C)n4)cc3Cl)c(=O)n(C[C@H]3OC[C@H](N)CO3)c2n1
55 | 0.634 | ≤ 4.74 | 60.7 | 28.2 (≈ 130 µM) | – | – | Cc1cccn(Cc2ccccc2F)c1=O
56 | 31.1 | 5.5 | 164 | 22.1 (≈ 74.1 µM) | – | – | Cc1ccc(C)c(-n2c(S)nnc2-c2ccc(O)cc2)c1
57 | 0.636 | 140 | 2250 | – | – | – | Cc1cnccc1-c1cnc(N(C)C)nc1-c1ccco1
58 | 2.22 | ≤ 4.74 | 53.8 | 52.5 (≈ 189 µM) | – | – | COc1ccc(C(=O)N(C)Cc2nccn2C)c(F)c1
59 | – | 17.1 | 261 | – | – | – | Cc1cnc(-c2nc(NCc3cccnc3)ncc2-c2cc(C)no2)cn1
